Results: the NIST ThermoML archive (doi:10.1021/je400184t)
Numbers after ± are expanded uncertainties.

Assay: excess molar enthalpy (molar enthalpy of mixing); xn = mol fraction of the nth substance listed
Settings: 298.15 K, 101 kPa, Liquid, Calvet calorimetry

## CN(CCO)CCO [N-methyldiethanolamine] + c1ccncc1
x2 = 0.5606
  excess molar enthalpy: -0.085 ± 0.002 kJ/mol
x2 = 0.5629
  excess molar enthalpy: -0.085 ± 0.002 kJ/mol
x2 = 0.5652
  excess molar enthalpy: -0.084 ± 0.002 kJ/mol
x2 = 0.5675
  excess molar enthalpy: -0.084 ± 0.002 kJ/mol
x2 = 0.5698
  excess molar enthalpy: -0.083 ± 0.002 kJ/mol
x2 = 0.5721
  excess molar enthalpy: -0.083 ± 0.002 kJ/mol
x2 = 0.5744
  excess molar enthalpy: -0.08 ± 0.002 kJ/mol
x2 = 0.5767
  excess molar enthalpy: -0.082 ± 0.002 kJ/mol
x2 = 0.579
  excess molar enthalpy: -0.081 ± 0.002 kJ/mol
x2 = 0.5813
  excess molar enthalpy: -0.081 ± 0.002 kJ/mol
x2 = 0.5836
  excess molar enthalpy: -0.08 ± 0.002 kJ/mol
x2 = 0.5859
  excess molar enthalpy: -0.08 ± 0.002 kJ/mol
x2 = 0.5882
  excess molar enthalpy: -0.079 ± 0.002 kJ/mol
x2 = 0.5905
  excess molar enthalpy: -0.079 ± 0.002 kJ/mol
x2 = 0.5928
  excess molar enthalpy: -0.078 ± 0.002 kJ/mol
x2 = 0.595
  excess molar enthalpy: -0.078 ± 0.002 kJ/mol
x2 = 0.5974
  excess molar enthalpy: -0.077 ± 0.002 kJ/mol
x2 = 0.5996
  excess molar enthalpy: -0.076 ± 0.002 kJ/mol
x2 = 0.6019
  excess molar enthalpy: -0.076 ± 0.002 kJ/mol
x2 = 0.6042
  excess molar enthalpy: -0.075 ± 0.002 kJ/mol
x2 = 0.6065
  excess molar enthalpy: -0.075 ± 0.002 kJ/mol
x2 = 0.6088
  excess molar enthalpy: -0.074 ± 0.002 kJ/mol
x2 = 0.6111
  excess molar enthalpy: -0.074 ± 0.002 kJ/mol
x2 = 0.6134
  excess molar enthalpy: -0.073 ± 0.002 kJ/mol
x2 = 0.6157
  excess molar enthalpy: -0.073 ± 0.002 kJ/mol
x2 = 0.618
  excess molar enthalpy: -0.072 ± 0.002 kJ/mol
x2 = 0.6203
  excess molar enthalpy: -0.072 ± 0.002 kJ/mol
x2 = 0.6226
  excess molar enthalpy: -0.071 ± 0.002 kJ/mol
x2 = 0.6249
  excess molar enthalpy: -0.07 ± 0.002 kJ/mol
x2 = 0.6272
  excess molar enthalpy: -0.07 ± 0.002 kJ/mol
x2 = 0.6295
  excess molar enthalpy: -0.069 ± 0.002 kJ/mol
x2 = 0.6318
  excess molar enthalpy: -0.069 ± 0.002 kJ/mol
x2 = 0.6341
  excess molar enthalpy: -0.068 ± 0.002 kJ/mol
x2 = 0.6363
  excess molar enthalpy: -0.068 ± 0.002 kJ/mol
x2 = 0.6386
  excess molar enthalpy: -0.067 ± 0.002 kJ/mol
x2 = 0.6409
  excess molar enthalpy: -0.067 ± 0.002 kJ/mol
x2 = 0.6432
  excess molar enthalpy: -0.066 ± 0.002 kJ/mol
x2 = 0.6455
  excess molar enthalpy: -0.065 ± 0.002 kJ/mol
x2 = 0.6478
  excess molar enthalpy: -0.065 ± 0.002 kJ/mol
x2 = 0.6501
  excess molar enthalpy: -0.064 ± 0.002 kJ/mol
x2 = 0.6524
  excess molar enthalpy: -0.064 ± 0.002 kJ/mol
x2 = 0.6547
  excess molar enthalpy: -0.063 ± 0.002 kJ/mol
x2 = 0.657
  excess molar enthalpy: -0.062 ± 0.002 kJ/mol
x2 = 0.6593
  excess molar enthalpy: -0.062 ± 0.002 kJ/mol
x2 = 0.6616
  excess molar enthalpy: -0.061 ± 0.002 kJ/mol
x2 = 0.6639
  excess molar enthalpy: -0.061 ± 0.002 kJ/mol
x2 = 0.6662
  excess molar enthalpy: -0.06 ± 0.002 kJ/mol
x2 = 0.6685
  excess molar enthalpy: -0.06 ± 0.002 kJ/mol
x2 = 0.6707
  excess molar enthalpy: -0.059 ± 0.002 kJ/mol
x2 = 0.6731
  excess molar enthalpy: -0.058 ± 0.002 kJ/mol
x2 = 0.6753
  excess molar enthalpy: -0.058 ± 0.002 kJ/mol
x2 = 0.6776
  excess molar enthalpy: -0.057 ± 0.002 kJ/mol
x2 = 0.6799
  excess molar enthalpy: -0.057 ± 0.002 kJ/mol
x2 = 0.6822
  excess molar enthalpy: -0.056 ± 0.002 kJ/mol
x2 = 0.6845
  excess molar enthalpy: -0.055 ± 0.002 kJ/mol
x2 = 0.6868
  excess molar enthalpy: -0.055 ± 0.002 kJ/mol
x2 = 0.6891
  excess molar enthalpy: -0.054 ± 0.002 kJ/mol
x2 = 0.6914
  excess molar enthalpy: -0.053 ± 0.002 kJ/mol
x2 = 0.6937
  excess molar enthalpy: -0.053 ± 0.002 kJ/mol
x2 = 0.696
  excess molar enthalpy: -0.052 ± 0.002 kJ/mol
x2 = 0.6983
  excess molar enthalpy: -0.052 ± 0.002 kJ/mol
x2 = 0.7006
  excess molar enthalpy: -0.051 ± 0.002 kJ/mol
x2 = 0.7029
  excess molar enthalpy: -0.05 ± 0.002 kJ/mol
x2 = 0.7052
  excess molar enthalpy: -0.05 ± 0.002 kJ/mol
x2 = 0.7075
  excess molar enthalpy: -0.049 ± 0.002 kJ/mol
x2 = 0.7097
  excess molar enthalpy: -0.048 ± 0.002 kJ/mol
x2 = 0.712
  excess molar enthalpy: -0.048 ± 0.002 kJ/mol
x2 = 0.7143
  excess molar enthalpy: -0.047 ± 0.002 kJ/mol
x2 = 0.7166
  excess molar enthalpy: -0.047 ± 0.002 kJ/mol
x2 = 0.7189
  excess molar enthalpy: -0.046 ± 0.002 kJ/mol
x2 = 0.7212
  excess molar enthalpy: -0.045 ± 0.002 kJ/mol
x2 = 0.7235
  excess molar enthalpy: -0.045 ± 0.002 kJ/mol
x2 = 0.7258
  excess molar enthalpy: -0.044 ± 0.002 kJ/mol
x2 = 0.7281
  excess molar enthalpy: -0.043 ± 0.002 kJ/mol
x2 = 0.7304
  excess molar enthalpy: -0.043 ± 0.002 kJ/mol
x2 = 0.7327
  excess molar enthalpy: -0.042 ± 0.002 kJ/mol
x2 = 0.735
  excess molar enthalpy: -0.041 ± 0.002 kJ/mol
x2 = 0.7373
  excess molar enthalpy: -0.041 ± 0.002 kJ/mol
x2 = 0.7396
  excess molar enthalpy: -0.04 ± 0.002 kJ/mol
x2 = 0.7419
  excess molar enthalpy: -0.04 ± 0.002 kJ/mol
x2 = 0.7442
  excess molar enthalpy: -0.039 ± 0.002 kJ/mol
x2 = 0.7464
  excess molar enthalpy: -0.038 ± 0.002 kJ/mol
x2 = 0.7488
  excess molar enthalpy: -0.038 ± 0.002 kJ/mol
x2 = 0.751
  excess molar enthalpy: -0.037 ± 0.002 kJ/mol
x2 = 0.7533
  excess molar enthalpy: -0.036 ± 0.002 kJ/mol
x2 = 0.7556
  excess molar enthalpy: -0.036 ± 0.002 kJ/mol
x2 = 0.7579
  excess molar enthalpy: -0.035 ± 0.002 kJ/mol
x2 = 0.7602
  excess molar enthalpy: -0.034 ± 0.002 kJ/mol
x2 = 0.7625
  excess molar enthalpy: -0.034 ± 0.002 kJ/mol
x2 = 0.7648
  excess molar enthalpy: -0.033 ± 0.002 kJ/mol
x2 = 0.7671
  excess molar enthalpy: -0.032 ± 0.002 kJ/mol
x2 = 0.7694
  excess molar enthalpy: -0.032 ± 0.002 kJ/mol
x2 = 0.7717
  excess molar enthalpy: -0.031 ± 0.002 kJ/mol
x2 = 0.774
  excess molar enthalpy: -0.03 ± 0.002 kJ/mol
x2 = 0.7763
  excess molar enthalpy: -0.03 ± 0.002 kJ/mol
x2 = 0.7786
  excess molar enthalpy: -0.029 ± 0.002 kJ/mol
x2 = 0.7809
  excess molar enthalpy: -0.028 ± 0.002 kJ/mol
x2 = 0.7827
  excess molar enthalpy: -0.028 ± 0.002 kJ/mol
x2 = 0.7869
  excess molar enthalpy: -0.027 ± 0.002 kJ/mol
x2 = 0.7911
  excess molar enthalpy: -0.025 ± 0.002 kJ/mol
x2 = 0.7953
  excess molar enthalpy: -0.024 ± 0.002 kJ/mol
x2 = 0.7996
  excess molar enthalpy: -0.023 ± 0.002 kJ/mol
x2 = 0.8039
  excess molar enthalpy: -0.022 ± 0.002 kJ/mol
x2 = 0.8083
  excess molar enthalpy: -0.021 ± 0.002 kJ/mol
x2 = 0.8127
  excess molar enthalpy: -0.019 ± 0.002 kJ/mol
x2 = 0.8172
  excess molar enthalpy: -0.018 ± 0.002 kJ/mol
x2 = 0.8217
  excess molar enthalpy: -0.017 ± 0.002 kJ/mol
x2 = 0.8263
  excess molar enthalpy: -0.015 ± 0.002 kJ/mol
x2 = 0.8309
  excess molar enthalpy: -0.014 ± 0.002 kJ/mol
x2 = 0.8356
  excess molar enthalpy: -0.013 ± 0.002 kJ/mol
x2 = 0.8404
  excess molar enthalpy: -0.012 ± 0.002 kJ/mol
x2 = 0.8451
  excess molar enthalpy: -0.01 ± 0.002 kJ/mol
x2 = 0.85
  excess molar enthalpy: -0.009 ± 0.002 kJ/mol
x2 = 0.8549
  excess molar enthalpy: -0.008 ± 0.002 kJ/mol
x2 = 0.8598
  excess molar enthalpy: -0.007 ± 0.002 kJ/mol
x2 = 0.8648
  excess molar enthalpy: -0.005 ± 0.002 kJ/mol
x2 = 0.8699
  excess molar enthalpy: -0.004 ± 0.002 kJ/mol
x2 = 0.875
  excess molar enthalpy: -0.003 ± 0.002 kJ/mol
x2 = 0.8802
  excess molar enthalpy: -0.002 ± 0.002 kJ/mol
x2 = 0.8855
  excess molar enthalpy: -0.001 ± 0.002 kJ/mol
x2 = 0.8908
  excess molar enthalpy: 0 ± 0.002 kJ/mol
x2 = 0.8962
  excess molar enthalpy: 0.001 ± 0.002 kJ/mol
x2 = 0.9016
  excess molar enthalpy: 0.002 ± 0.002 kJ/mol
x2 = 0.9071
  excess molar enthalpy: 0.003 ± 0.002 kJ/mol
x2 = 0.9127
  excess molar enthalpy: 0.004 ± 0.002 kJ/mol
x2 = 0.9183
  excess molar enthalpy: 0.005 ± 0.002 kJ/mol
x2 = 0.9241
  excess molar enthalpy: 0.006 ± 0.002 kJ/mol
x2 = 0.9298
  excess molar enthalpy: 0.006 ± 0.002 kJ/mol
x2 = 0.9357
  excess molar enthalpy: 0.007 ± 0.002 kJ/mol
x2 = 0.9416
  excess molar enthalpy: 0.007 ± 0.002 kJ/mol
x2 = 0.9477
  excess molar enthalpy: 0.007 ± 0.002 kJ/mol
x2 = 0.9538
  excess molar enthalpy: 0.008 ± 0.002 kJ/mol
x2 = 0.9599
  excess molar enthalpy: 0.007 ± 0.002 kJ/mol
x2 = 0.9662
  excess molar enthalpy: 0.007 ± 0.002 kJ/mol
x2 = 0.9725
  excess molar enthalpy: 0.007 ± 0.002 kJ/mol
x2 = 0.9789
  excess molar enthalpy: 0.006 ± 0.002 kJ/mol
x2 = 0.9854
  excess molar enthalpy: 0.005 ± 0.002 kJ/mol
x2 = 0.992
  excess molar enthalpy: 0.003 ± 0.002 kJ/mol
x2 = 0.9987
  excess molar enthalpy: 0.001 ± 0.002 kJ/mol
